From patent US20200017495A1, “NOVEL HETEROCYCLIC COMPOUNDS AND THEIR USE IN PREVENTING OR TREATING BACTERIAL INFECTIONS” (priority 2017, published 2020)
Where two headings read alike, the source gives them in different places.

Experiments:
TEM-1 = TEM-1 (Escherichia coli, UniProt P62593); assay: β-lactamase inhibitory activity, IC50 (nitrocefin hydrolysis); format: biochemical
Protocol: (§1) Enzymes were cloned in E. coli expression vector, expressed and purified in house using classical procedures. […] After 30 min of pre-incubation at room temperature, 15 μL of NCF (100 μM final) were finally added in each well. […] Enzyme activity was obtained by subtracting the background from the final signal, and was converted to enzyme inhibition using non inhibited wells. IC50 curves were fitted to a classical Langmuir equilibrium model with Hill slope using XLFIT (IDBS).

OXA-11 = OXA-11 (Pseudomonas aeruginosa, UniProt Q06778); assay: as above; format: biochemical
Protocol: as §1

SHV-1 = SHV-1 (Klebsiella pneumoniae, UniProt P0AD64); assay: as above; format: biochemical
Protocol: as §1

[1] = system: Citrobacter murliniae (CMU) isolates; assay: MIC of compounds alone and combined with antibacterials, broth microdilution (CLSI); format: cell-based; conditions: Citrobacter murliniae; CMU 210102; alone; read-out: MIC
Outline: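 Genotyped isolates; cpd ± antibacterial, DMSO spots; ca-MHB, 5.10^5 CFU/mL; 35° C, 16-20 h, air; visual MIC; ATB MIC per cpd concentration.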

OXA-23 = OXA-23 (Acinetobacter baumannii, UniProt Q9L4P2); assay: β-lactamase inhibitory activity, IC50 (nitrocefin hydrolysis); format: biochemical
Protocol: as §1

P99 ampC = P99 ampC (Enterobacter cloacae, UniProt P05364); assay: as above; format: biochemical
Protocol: (§2) Method 1: β-Lactamase Inhibitory Activity, Determination of IC50 (Table 1)
as §1

OXA-40 = OXA-40 (Acinetobacter baumannii, UniProt Q8RLA6); assay: as above; format: biochemical
Protocol: as §1

OXA-1 = OXA-1 (Escherichia coli, UniProt P13661); assay: as above; format: biochemical
Protocol: as §1

KPC-2 = KPC-2 (Klebsiella pneumoniae, UniProt Q9F663); assay: as above; format: biochemical
Protocol: as §2, §1

PAE ampC = PAE ampC (Pseudomonas aeruginosa, UniProt P24735); assay: as above; format: biochemical, P. aeruginosa
Protocol: as §1

[2] = system: Citrobacter freundii (CFR) isolates; assay: MIC of compounds alone and combined with antibacterials, broth microdilution (CLSI); format: cell-based; conditions: Citrobacter freundii
Outline: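 Broth microdilution in cation-adjusted Mueller-Hinton broth, inoculum 5.10^5 CFU/mL, 16-20 h at 35° C in ambient air, on genotyped isolates. Compound MIC, alone or with an antibacterial, taken visually as lowest concentration preventing growth; antibacterial MIC determined at each compound concentration.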

OXA-15 = OXA-15 (Pseudomonas aeruginosa, UniProt Q51574); assay: β-lactamase inhibitory activity, IC50 (nitrocefin hydrolysis); format: biochemical
Protocol: as §1

OXA-58 = OXA-58 (Acinetobacter baumannii, UniProt Q2TR58); assay: as above; format: biochemical
Protocol: as §1

OXA-48 = OXA-48 (Klebsiella pneumoniae, UniProt Q6XEC0); assay: as above; format: biochemical
Protocol: as §1

SHV-12 = SHV-12 (Klebsiella pneumoniae, UniProt P0AD64, E235K/G234S/L31Q); assay: as above; format: biochemical
Protocol: as §2, §1

SAU PC1 = SAU PC1 (Staphylococcus aureus, UniProt P00807); assay: as above; format: biochemical, S. aureus
Protocol: as §2, §1

CTX-M-15 = CTX-M-15 (Escherichia coli, UniProt Q9EXV5); assay: as above; format: biochemical
Protocol: as §2, §1

[3] = strain CFR UFR251, compound alone, read-out: MIC

Chain of OXA-48 (Q6XEC0 23-265 limits assumed): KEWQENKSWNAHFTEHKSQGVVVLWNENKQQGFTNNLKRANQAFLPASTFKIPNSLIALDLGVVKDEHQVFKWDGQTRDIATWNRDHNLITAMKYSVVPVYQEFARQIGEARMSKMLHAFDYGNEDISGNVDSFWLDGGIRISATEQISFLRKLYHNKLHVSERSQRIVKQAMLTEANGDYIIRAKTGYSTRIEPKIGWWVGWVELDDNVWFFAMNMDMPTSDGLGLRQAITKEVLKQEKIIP
Chain of OXA-23 (Q9L4P2 18-273): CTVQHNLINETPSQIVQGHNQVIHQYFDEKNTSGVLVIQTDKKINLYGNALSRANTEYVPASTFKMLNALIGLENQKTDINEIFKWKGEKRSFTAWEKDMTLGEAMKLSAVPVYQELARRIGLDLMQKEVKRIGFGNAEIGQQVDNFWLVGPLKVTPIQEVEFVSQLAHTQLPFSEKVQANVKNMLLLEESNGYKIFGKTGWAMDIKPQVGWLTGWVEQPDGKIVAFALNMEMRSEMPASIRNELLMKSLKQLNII
Chain of OXA-40 (Q8RLA6 entry or part of it): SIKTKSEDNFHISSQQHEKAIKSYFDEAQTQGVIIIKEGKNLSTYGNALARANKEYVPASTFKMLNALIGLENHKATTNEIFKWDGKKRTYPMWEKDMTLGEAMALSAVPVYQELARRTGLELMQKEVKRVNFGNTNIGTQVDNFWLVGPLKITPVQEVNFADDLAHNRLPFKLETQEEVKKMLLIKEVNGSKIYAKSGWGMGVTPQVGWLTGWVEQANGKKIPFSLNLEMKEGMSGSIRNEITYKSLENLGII
Chain of PAE ampC (P24735 27-397): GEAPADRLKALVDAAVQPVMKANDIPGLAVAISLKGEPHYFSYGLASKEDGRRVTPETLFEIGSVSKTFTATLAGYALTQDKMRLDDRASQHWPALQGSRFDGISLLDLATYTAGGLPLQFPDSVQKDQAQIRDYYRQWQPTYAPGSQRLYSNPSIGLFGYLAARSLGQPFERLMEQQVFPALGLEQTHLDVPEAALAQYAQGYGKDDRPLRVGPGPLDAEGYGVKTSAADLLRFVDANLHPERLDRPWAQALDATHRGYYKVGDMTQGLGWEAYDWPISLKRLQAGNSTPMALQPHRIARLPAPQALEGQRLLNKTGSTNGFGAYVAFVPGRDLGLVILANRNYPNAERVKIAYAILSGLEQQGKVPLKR
Chain of OXA-15 (Q51574 22-275): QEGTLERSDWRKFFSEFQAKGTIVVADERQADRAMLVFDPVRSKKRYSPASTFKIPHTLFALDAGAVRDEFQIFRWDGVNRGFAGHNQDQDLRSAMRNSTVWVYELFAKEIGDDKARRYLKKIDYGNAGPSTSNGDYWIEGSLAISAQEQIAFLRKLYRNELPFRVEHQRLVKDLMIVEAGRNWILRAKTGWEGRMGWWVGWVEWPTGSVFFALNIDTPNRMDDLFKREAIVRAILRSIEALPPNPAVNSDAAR
Chain of SAU PC1 (P00807 25-281): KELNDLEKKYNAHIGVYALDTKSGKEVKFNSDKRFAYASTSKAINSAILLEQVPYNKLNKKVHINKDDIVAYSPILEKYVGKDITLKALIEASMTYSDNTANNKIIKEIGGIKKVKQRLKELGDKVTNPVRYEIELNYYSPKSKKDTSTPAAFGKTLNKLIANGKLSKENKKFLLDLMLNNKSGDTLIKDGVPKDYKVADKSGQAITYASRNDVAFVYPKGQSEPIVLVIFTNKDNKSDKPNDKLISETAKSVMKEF
Chain of CTX-M-15 (Q9EXV5 entry or part of it): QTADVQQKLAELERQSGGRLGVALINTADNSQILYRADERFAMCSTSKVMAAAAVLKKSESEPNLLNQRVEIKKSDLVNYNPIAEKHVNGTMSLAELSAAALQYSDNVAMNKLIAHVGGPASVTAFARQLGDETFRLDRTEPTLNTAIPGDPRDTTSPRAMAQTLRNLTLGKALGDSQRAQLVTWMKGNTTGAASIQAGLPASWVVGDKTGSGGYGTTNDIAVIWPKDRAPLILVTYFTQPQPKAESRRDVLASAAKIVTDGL
Chain of OXA-11 (Q06778 21-266): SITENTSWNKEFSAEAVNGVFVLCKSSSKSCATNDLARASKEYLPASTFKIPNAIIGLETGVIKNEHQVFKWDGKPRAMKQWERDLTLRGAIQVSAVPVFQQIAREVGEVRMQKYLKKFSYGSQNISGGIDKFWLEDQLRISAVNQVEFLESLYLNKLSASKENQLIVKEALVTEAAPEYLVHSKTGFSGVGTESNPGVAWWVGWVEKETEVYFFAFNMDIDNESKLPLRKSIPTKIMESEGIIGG
Chain of TEM-1 (P62593 24-286 limits assumed): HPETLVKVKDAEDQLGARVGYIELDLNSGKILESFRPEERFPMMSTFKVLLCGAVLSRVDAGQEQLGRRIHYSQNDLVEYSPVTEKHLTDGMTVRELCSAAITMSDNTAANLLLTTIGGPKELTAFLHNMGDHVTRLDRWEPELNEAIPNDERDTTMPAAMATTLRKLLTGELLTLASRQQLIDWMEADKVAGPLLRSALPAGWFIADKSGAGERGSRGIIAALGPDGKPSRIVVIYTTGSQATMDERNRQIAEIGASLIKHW
Chain of OXA-58 (Q2TR58 19-280): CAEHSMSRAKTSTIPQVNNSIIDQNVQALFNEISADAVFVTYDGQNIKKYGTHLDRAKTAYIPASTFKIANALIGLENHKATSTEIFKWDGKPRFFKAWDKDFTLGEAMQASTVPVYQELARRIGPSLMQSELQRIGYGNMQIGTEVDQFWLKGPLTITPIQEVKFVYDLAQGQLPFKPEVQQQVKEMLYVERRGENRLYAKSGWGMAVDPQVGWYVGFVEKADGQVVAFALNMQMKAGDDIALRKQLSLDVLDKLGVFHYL
Chain of OXA-1 (P13661 26-276): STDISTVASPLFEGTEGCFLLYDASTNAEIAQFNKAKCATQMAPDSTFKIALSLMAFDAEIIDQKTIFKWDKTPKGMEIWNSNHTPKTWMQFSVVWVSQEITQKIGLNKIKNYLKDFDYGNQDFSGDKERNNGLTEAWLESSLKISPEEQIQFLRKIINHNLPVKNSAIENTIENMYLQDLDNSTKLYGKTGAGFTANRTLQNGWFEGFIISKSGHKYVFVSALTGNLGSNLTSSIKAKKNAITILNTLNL
Chain of P99 ampC (P05364 21-381): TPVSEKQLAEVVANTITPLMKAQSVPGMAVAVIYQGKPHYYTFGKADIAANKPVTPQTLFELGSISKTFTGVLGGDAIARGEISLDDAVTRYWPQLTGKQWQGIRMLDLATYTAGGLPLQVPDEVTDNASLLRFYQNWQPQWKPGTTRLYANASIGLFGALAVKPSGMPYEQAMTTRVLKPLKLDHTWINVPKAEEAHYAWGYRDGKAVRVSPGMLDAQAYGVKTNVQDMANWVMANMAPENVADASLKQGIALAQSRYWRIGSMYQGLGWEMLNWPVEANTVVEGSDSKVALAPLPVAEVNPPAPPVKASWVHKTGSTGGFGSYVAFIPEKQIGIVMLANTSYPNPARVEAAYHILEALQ
Chain of SHV-12 (P0AD64 22-286 L31Q/G234S/E235K): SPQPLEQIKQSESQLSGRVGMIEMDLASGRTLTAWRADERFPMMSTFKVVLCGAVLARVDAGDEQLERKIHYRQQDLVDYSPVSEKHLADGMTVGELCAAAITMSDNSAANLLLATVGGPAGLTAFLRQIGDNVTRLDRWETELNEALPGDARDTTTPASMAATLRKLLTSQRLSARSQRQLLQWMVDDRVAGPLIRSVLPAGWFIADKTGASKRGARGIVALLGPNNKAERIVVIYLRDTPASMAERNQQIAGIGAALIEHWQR
Chain of KPC-2 (Q9F663 25-293 limits assumed): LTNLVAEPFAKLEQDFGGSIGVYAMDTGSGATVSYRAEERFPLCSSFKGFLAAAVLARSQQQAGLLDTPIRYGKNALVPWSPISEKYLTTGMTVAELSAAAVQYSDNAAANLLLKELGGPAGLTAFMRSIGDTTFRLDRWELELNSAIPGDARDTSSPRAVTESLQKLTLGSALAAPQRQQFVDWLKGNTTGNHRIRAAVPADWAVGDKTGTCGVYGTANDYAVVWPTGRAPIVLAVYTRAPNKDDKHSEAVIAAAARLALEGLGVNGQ
Chain of SHV-1 (P0AD64 22-286): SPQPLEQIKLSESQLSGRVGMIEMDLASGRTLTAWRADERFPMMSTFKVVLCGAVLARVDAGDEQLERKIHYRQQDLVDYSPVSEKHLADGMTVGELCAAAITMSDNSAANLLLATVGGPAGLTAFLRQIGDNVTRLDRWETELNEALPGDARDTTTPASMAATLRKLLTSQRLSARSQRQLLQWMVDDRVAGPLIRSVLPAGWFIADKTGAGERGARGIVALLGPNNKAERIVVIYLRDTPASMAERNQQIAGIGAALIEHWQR

Q: Which IC50 (TEM-1) does the source give for `O=C1N2CC(c3ncco3)=CC(C2)N1OC(F)(F)C(=O)[O-].[Li+]` (centres unmarked) [AF2] here?
A: 2.6 nM

Q: What about the IC50 (OXA-11) of the same compound?
A: 84 nM

Q: What about the IC50 (SHV-1) of the same compound?
A: 12 nM

Q: And the MIC [1]?
A: 16 µg/mL

Q: What about the IC50 (OXA-23) of the same compound?
A: 7400 nM

Q: What about the IC50 (P99 ampC) of the same compound?
A: 730 nM

Q: And the IC50 (OXA-40)?
A: 8300 nM

Q: What about the IC50 (OXA-1) of the same compound?
A: 2100 nM

Q: What about the IC50 (KPC-2) of the same compound?
A: 69 nM

Q: What about the IC50 (PAE ampC) of the same compound?
A: 280 nM

Q: And the MIC ([2]; CFR UFR10, alone)?
A: 4 µg/mL

Q: And the MIC ([2]; CFR UFR11, alone)?
A: > 32 µg/mL

Q: What about the MIC ([2]; CFR UFR37, alone) of the same compound?
A: 4 µg/mL

Q: And the MIC ([2]; CFR UFR83, alone)?
A: > 32 µg/mL

Q: And the MIC ([2]; CFR UFR146, alone)?
A: 32 µg/mL

Q: What about the MIC ([2]; CFR UFR248, alone) of the same compound?
A: 8 µg/mL

Q: And the MIC ([2]; strain CFR UFR147, compound alone)?
A: 8 µg/mL

Q: And the MIC ([2]; strain CFR UFR148, compound alone)?
A: 8 µg/mL

Q: What about the MIC [2, 3] of the same compound?
A: 16 µg/mL

Q: What about the MIC ([2]; strain CFR UFR254, compound alone) of the same compound?
A: 4 µg/mL

Q: What about the IC50 (OXA-15) of the same compound?
A: 140 nM

Q: And the IC50 (OXA-58)?
A: 580 nM

Q: And the IC50 (OXA-48)?
A: 2.4 nM

Q: And the IC50 (SHV-12)?
A: 4.1 nM

Q: What about the IC50 (SAU PC1) of the same compound?
A: 220 nM

Q: And the IC50 (CTX-M-15)?
A: 1.5 nM

Q: Which results are given for `O=C1N2CC(n3cccn3)=CC(C2)N1OC(F)(F)C(=O)[O-].[Li+]` (centres unmarked) [AF3]?
A: IC50 (TEM-1): 0.81 nM; IC50 (OXA-11): 40 nM; IC50 (SHV-1): 6 nM; MIC [1]: 16 µg/mL; IC50 (OXA-23): 9600 nM; IC50 (P99 ampC): 270 nM; IC50 (OXA-40): 8900 nM; IC50 (OXA-1): 1100 nM; IC50 (KPC-2): 77 nM; IC50 (PAE ampC): 98 nM; MIC ([2]; CFR UFR10, alone, read-out: MIC): 16 µg/mL; MIC ([2]; CFR UFR11, alone, read-out: MIC): > 32 µg/mL; MIC ([2]; CFR UFR37, alone, read-out: MIC): 8 µg/mL; MIC ([2]; CFR UFR83, alone, read-out: MIC): > 32 µg/mL; MIC ([2]; CFR UFR146, alone, read-out: MIC): 32 µg/mL; MIC ([2]; CFR UFR248, alone, read-out: MIC): 8 µg/mL; MIC ([2]; CFR UFR249, alone, read-out: MIC): 8 µg/mL; MIC ([2]; CFR UFR250, alone, read-out: MIC): 16 µg/mL; MIC ([2]; strain CFR UFR147, compound alone, read-out: MIC): 4 µg/mL; MIC ([2]; strain CFR UFR148, compound alone, read-out: MIC): 16 µg/mL; MIC [2, 3]: 8 µg/mL; MIC ([2]; strain CFR UFR252, compound alone, read-out: MIC): 32 µg/mL; MIC ([2]; strain CFR UFR253, compound alone, read-out: MIC): 32 µg/mL; MIC ([2]; strain CFR UFR254, compound alone, read-out: MIC): 32 µg/mL; IC50 (OXA-15): 120 nM; IC50 (OXA-58): 1000 nM; IC50 (OXA-48): 5.1 nM; IC50 (SHV-12): 4.3 nM; IC50 (SAU PC1): 120 nM; IC50 (CTX-M-15): 0.66 nM
